Patent US12612360B2 (Sanofi, priority 2020, dated 2026)

Target: T1, ERα (Homo sapiens, UniProt P03372)
T1 construct: host or cells: MCF7
T1 sequence (P03372 1-595): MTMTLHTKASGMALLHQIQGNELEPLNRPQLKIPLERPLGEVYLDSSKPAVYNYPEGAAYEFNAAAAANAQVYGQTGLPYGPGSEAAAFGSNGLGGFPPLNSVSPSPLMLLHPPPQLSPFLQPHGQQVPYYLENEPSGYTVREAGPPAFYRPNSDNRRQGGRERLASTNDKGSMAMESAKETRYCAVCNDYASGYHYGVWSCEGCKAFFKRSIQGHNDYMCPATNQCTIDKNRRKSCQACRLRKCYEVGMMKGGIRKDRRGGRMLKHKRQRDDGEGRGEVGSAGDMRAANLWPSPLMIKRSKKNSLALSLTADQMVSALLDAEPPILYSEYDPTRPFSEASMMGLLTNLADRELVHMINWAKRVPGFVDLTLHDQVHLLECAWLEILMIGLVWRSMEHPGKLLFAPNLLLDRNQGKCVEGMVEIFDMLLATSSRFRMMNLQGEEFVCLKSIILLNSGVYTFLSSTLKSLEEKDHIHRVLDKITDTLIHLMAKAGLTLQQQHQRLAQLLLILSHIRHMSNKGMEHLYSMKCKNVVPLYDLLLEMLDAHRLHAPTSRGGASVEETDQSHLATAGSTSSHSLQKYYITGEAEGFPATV
Assay: Estrogen receptor degradation activity: breast cancer cell ERα in cell western assay (MCF7 cells)
Format: cell-based
Settings: for % Degradation At 0.3 μM: 4 hours, relative to fulvestrant 0.1 μM positive control; for DC50: 4 hours post compound addition, concentration which degrades 50% of the estrogen receptor, read-out: Degradation IC50
Procedure, shortened: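 In-cell western readout: ERα immunofluorescence (Alexa 488) normalised to DNA signal (Syto-64) after formalin fixation. Compounds dosed for 4 h on MCF7 cells in stripped-serum, phenol-red-free medium over nine 1:5 steps, 0.3 to […] final; fulvestrant 0.1 μM control. IC50 in nM for 50% ERα degradation.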

| Compound | % Degradation At 0.3 μM [%] | DC50 [nM] |
| --- | --- | --- |
| [2H]C([2H])(CCF)N1CC(=Cc2ccc(C3=C(c4ccc(Cl)cc4Cl)CCCc4cc(C(=O)O)ccc43)cc2)C1 [Example 122, 8-(2,4-dichlorophenyl)-9-(4-((1-(3-fluoropropyl-1,1-d2)azetidin-3-ylidene)methyl)phenyl)-6,7-dihydro-5H-benzo[7]annulene-3-carboxylic acid] | 94 | 0.4 |
| FCCCN1CC(=Cc2ccc(C3=C(c4ccccc4Cl)CCCc4ccccc43)cc2)C1 [Example 120, 3-(4-(8-(2-chlorophenyl)-6,7-dihydro-5H-benzo[7]annulen-9-yl)benzylidene)-1-(3-fluoropropyl)azetidine] | 98 | 2.68 |
| Cc1c(C2=C(c3ccc(C=C4CN(CCC(F)F)C4)cc3)c3ccc(C(=O)O)cc3CCC2)cccc1C(F)(F)F [Example 134, 9-(4-((1-(3,3-difluoropropyl)azetidin-3-ylidene)methyl)phenyl)-8-(2-methyl-3-(trifluoromethyl)phenyl)-6,7-dihydro-5H-benzo[7]annulene-3-carboxylic acid] | 93 | 1.1 |
| CC(C)CC1=C(c2ccc(C=C3CN(CCCF)C3)cc2)c2ccc(C(=O)O)cc2CCC1 [Example 100, 9-(4-((1-(3-Fluoropropyl)azetidin-3-ylidene)methyl)phenyl)-8-isobutyl-6,7-dihydro-5H-benzo[7]annulene-3-carboxylic acid] | 94 | 0.3 |
| CC1(C)CCCC(C2=C(c3ncc(C=C4CN(CCCF)C4)cc3F)c3ccc(C(=O)O)cc3CCC2)C1 (racemic) [Example 186, 8-(3,3-Dimethylcyclohexyl)-9-(3-fluoro-5-((1-(3-fluoropropyl)azetidin-3-ylidene)methyl)pyridin-2-yl)-6,7-dihydro-5H-benzo[7]annulene-3-carboxylic acid, racemic mixture] | 92 | 1 |
| O=C(O)c1ccc2c(c1)CCCC(c1cccc3c1CCCC3)=C2c1ccc(C=C2CN(CCCF)C2)cc1 [Example 177, 9-(4-((1-(3-fluoropropyl)azetidin-3-ylidene)methyl)phenyl)-8-(5,6,7,8-tetrahydronaphthalen-1-yl)-6,7-dihydro-5H-benzo[7]annulene-3-carboxylic acid] | 92 | 1 |
| CC1CCc2cc(C(=O)O)ccc2C(c2ccc(C=C3CN(CCCF)C3)cc2)=C1c1ccc(Cl)cc1 (single isomer, unassigned) [Example 184, 8-(4-chlorophenyl)-9-(4-((1-(3-fluoropropyl)azetidin-3-ylidene)methyl)phenyl)-7-methyl-6,7-dihydro-5H-benzo[7]annulene-3-carboxylic acid] | 90 | 0.4 |

Further molecules by falling DC50, results first:

| % Degradation At 0.3 μM [%] | DC50 [nM] | Compound |
| --- | --- | --- |
| 92 | 0.4 | O=C(O)c1ccc2c(c1)CCCC(c1c(F)ccc3c1CCC3)=C2c1ccc(C=C2CN(CCCF)C2)cc1 [Example 6, 8-(5-fluoro-2,3-dihydro-1H-inden-4-yl)-9-(4-((1-(3-fluoropropyl)azetidin-3-ylidene)methyl)phenyl)-6,7-dihydro-5H-benzo[7]annulene-3-carboxylic acid] |
| 94 | 0.4 | Cc1c(F)ccc(C2=C(c3ccc(C=C4CN(CCCF)C4)cc3)c3ccc(C(=O)O)cc3CCC2)c1C [Example 87, 8-(4-fluoro-2,3-dimethylphenyl)-9-(4-((1-(3-fluoropropyl)azetidin-3-ylidene)methyl)phenyl)-6,7-dihydro-5H-benzo[7]annulene-3-carboxylic acid] |
| 93 | 0.2 | O=C(O)c1ccc2c(c1)CCCC(c1cccc(C(F)(F)F)c1F)=C2c1ccc(C=C2CN(CCCF)C2)cc1 [Example 56, 8-(2-fluoro-3-(trifluoromethyl)phenyl)-9-(4-((1-(3-fluoropropyl)azetidin-3-ylidene)methyl)phenyl)-6,7-dihydro-5H-benzo[7]annulene-3-carboxylic acid] |
